In paper PMC8286840, “Identifying SARS-CoV-2 antiviral compounds by screening for small molecule inhibitors of Nsp3 papain-like protease” (Biochemical Journal, 2021):
Structures can show the parent of a compound that is named as a salt. Where two headings read alike, the source gives them in different places.

Key:
[1] = target: T1, SARS-CoV-2 PLpro (nsp3 1564–1878) (Severe acute respiratory syndrome coronavirus 2, UniProt P0DTD1); test: biochemical; design: FRET-quenched peptide (Pro3) cleavage by PLpro, 10 min pre-incubation, slope over 20 min, normalised to no-compound control; settings: low concentration screen, read-out: % of control remaining
[2] = target: T1, SARS-CoV-2 PLpro (nsp3 1564–1878); test: biochemical; design: FRET-quenched peptide (Pro3) cleavage by PLpro, 10 min pre-incubation, slope over 20 min, normalised to no-compound control; settings: high concentration screen, read-out: % of control remaining

**Q.** Which results are given for `CC(C)[N+](C)(CCOC(=O)C1c2ccccc2Oc2ccccc21)C(C)C` [Propantheline bromide]?
**A.** remaining activity at 1.25 µM ([1]; Well no.=1401): 102%; remaining activity at 3.75 µM ([2]; Well no.=1401): 102%

**Q.** `CCCn1cnc2c1c(=O)n(CCCCC(C)=O)c(=O)n2C` [Propentofylline] was tested. Which remaining activity at 1.25 µM ([1]; Well no.=1403) did it give?
**A.** 95.1%

**Q.** And the remaining activity at 3.75 µM ([2]; Well no.=1403)?
**A.** 94%

**Q.** `CCC(=O)c1ccc2c(c1)N(CCCN(C)C)c1ccccc1S2` [Propionylpromazine hydrochloride] was tested. Which remaining activity at 1.25 µM ([1]; Well no.=1301) did it give?
**A.** 103%

**Q.** And the remaining activity at 3.75 µM ([2]; Well no.=1301)?
**A.** 106%

**Q.** What does the source list for `CC(C)c1cccc(C(C)C)c1O` [Propofol]?
**A.** remaining activity at 1.25 µM ([1]; Well no.=544): 104%; remaining activity at 1.25 µM ([1]; Well no.=1893): 92.7%; remaining activity at 3.75 µM ([2]; Well no.=544): 103%; remaining activity at 3.75 µM ([2]; Well no.=1893): 89.6%

**Q.** How did the remaining activity at 1.25 µM ([1]; Well no.=7453) turn out when `CCCOC(=O)c1ccc(O)cc1` [Propylparaben] was run?
**A.** 105%

**Q.** What about the remaining activity at 3.75 µM ([2]; Well no.=7453) of the same compound?
**A.** 101%

**Q.** `CCCc1cc(=O)[nH]c(=S)[nH]1` [Propylthiouracil] was tested. Which remaining activity at 1.25 µM ([1]; Well no.=4670) did it give?
**A.** 98.7%

**Q.** And the remaining activity at 3.75 µM ([2]; Well no.=4670)?
**A.** 94.9%

**Q.** Which results are given for `CCCCC[C@H](O)/C=C/[C@H]1C=CC(=O)[C@@H]1CCCCCCC(=O)O` [Prostaglandin A1]?
**A.** remaining activity at 1.25 µM ([1]; Well no.=3086): 99.1%; remaining activity at 1.25 µM ([1]; Well no.=4235): 89.4%; remaining activity at 3.75 µM ([2]; Well no.=3086): 101%; remaining activity at 3.75 µM ([2]; Well no.=4235): 94.9%

**Q.** What does the source list for `CCCCC[C@H](O)/C=C/[C@H]1C=CC(=O)[C@@H]1C/C=C\CCCC(=O)O` [Prostaglandin A2]?
**A.** remaining activity at 1.25 µM ([1]; Well no.=4467): 100%; remaining activity at 3.75 µM ([2]; Well no.=4467): 96.3%

**Q.** With `CCCCC[C@H](O)/C=C/C1=C(CCCCCCC(=O)O)C(=O)CC1` [Prostaglandin B1] as the compound, how does the remaining activity at 1.25 µM ([1]; Well no.=3088) read?
**A.** 99.1%

**Q.** What about the remaining activity at 1.25 µM ([1]; Well no.=4469) of the same compound?
**A.** 102%

**Q.** And the remaining activity at 3.75 µM ([2]; Well no.=3088)?
**A.** 100%

**Q.** And the remaining activity at 3.75 µM ([2]; Well no.=4469)?
**A.** 102%

**Q.** For `CCCCC[C@H](O)/C=C/C1=C(C/C=C\CCCC(=O)O)C(=O)CC1` [Prostaglandin B2], which remaining activity at 1.25 µM ([1]; Well no.=4471) is on record?
**A.** 96.7%

**Q.** And the remaining activity at 3.75 µM ([2]; Well no.=4471)?
**A.** 101%

**Q.** For `CCCCC[C@H](O)/C=C/[C@H]1[C@H](O)CC(=O)[C@@H]1CCCCCCC(=O)O` [Prostaglandin E1], which remaining activity at 1.25 µM ([1]; Well no.=2192) is on record?
**A.** 92.3%

**Q.** And the remaining activity at 1.25 µM ([1]; Well no.=3090)?
**A.** 95.3%

**Q.** What about the remaining activity at 1.25 µM ([1]; Well no.=4473) of the same compound?
**A.** 103%

**Q.** And the remaining activity at 1.25 µM ([1]; Well no.=4475)?
**A.** 93.1%

**Q.** And the remaining activity at 1.25 µM ([1]; Well no.=8109)?
**A.** 91.2%

**Q.** What about the remaining activity at 3.75 µM ([2]; Well no.=2192) of the same compound?
**A.** 91.2%

**Q.** What about the remaining activity at 3.75 µM ([2]; Well no.=3090) of the same compound?
**A.** 97%

**Q.** And the remaining activity at 3.75 µM ([2]; Well no.=4473)?
**A.** 101%

**Q.** And the remaining activity at 3.75 µM ([2]; Well no.=4475)?
**A.** 94.7%

**Q.** What about the remaining activity at 3.75 µM ([2]; Well no.=8109) of the same compound?
**A.** 95%

**Q.** Which remaining activity at 1.25 µM ([1]; Well no.=1625) does the source give for `CCCCC[C@H](O)/C=C/[C@H]1[C@H](O)CC(=O)[C@@H]1C/C=C\CCCC(=O)O` [Prostaglandin E2] here?
**A.** 100%

**Q.** What about the remaining activity at 1.25 µM ([1]; Well no.=3092) of the same compound?
**A.** 98.6%

**Q.** And the remaining activity at 1.25 µM ([1]; Well no.=4477)?
**A.** 99.7%

**Q.** And the remaining activity at 1.25 µM ([1]; Well no.=6151)?
**A.** 106%

**Q.** What about the remaining activity at 1.25 µM ([1]; Well no.=8105) of the same compound?
**A.** 94.3%

**Q.** And the remaining activity at 3.75 µM ([2]; Well no.=1625)?
**A.** 103%

**Q.** And the remaining activity at 3.75 µM ([2]; Well no.=3092)?
**A.** 101%

**Q.** And the remaining activity at 3.75 µM ([2]; Well no.=6151)?
**A.** 110%

**Q.** What about the remaining activity at 3.75 µM ([2]; Well no.=8105) of the same compound?
**A.** 95.4%

**Q.** Which remaining activity at 1.25 µM ([1]; Well no.=4483) does the source give for `CCCCC[C@H](O)/C=C/[C@@H]1[C@H]2C/C(=C/CCCC(=O)O)O[C@H]2C[C@H]1O` [Prostaglandin I2 Na] here?
**A.** 99%

**Q.** And the remaining activity at 3.75 µM ([2]; Well no.=4483)?
**A.** 102%

**Q.** `CCCc1cc(C(N)=S)ccn1` [Prothionamide] was tested. Which remaining activity at 1.25 µM ([1]; Well no.=2147) did it give?
**A.** 97%

**Q.** And the remaining activity at 3.75 µM ([2]; Well no.=2147)?
**A.** 99.4%

**Q.** `O=C(O)c1ccc(O)c(O)c1` [Protocatechuic acid] was tested. Which remaining activity at 1.25 µM ([1]; Well no.=4047) did it give?
**A.** 99.6%

**Q.** And the remaining activity at 3.75 µM ([2]; Well no.=4047)?
**A.** 101%

**Q.** With `CN1CCc2cc3c(cc2C(=O)Cc2cc4c(cc2C1)OCO4)OCO3` [Protopine] as the compound, how does the remaining activity at 1.25 µM ([1]; Well no.=3195) read?
**A.** 105%

**Q.** And the remaining activity at 3.75 µM ([2]; Well no.=3195)?
**A.** 104%

**Q.** For `C=CC1=C(C)c2cc3[nH]c(cc4nc(cc5[nH]c(cc1n2)c(C)c5CCC(=O)O)C(CCC(=O)O)=C4C)c(C)c3C=C` [Protoporphyrin IX disodium], which remaining activity at 1.25 µM ([1]; Well no.=1207) is on record?
**A.** 104%

**Q.** And the remaining activity at 3.75 µM ([2]; Well no.=1207)?
**A.** 102%

**Q.** Which remaining activity at 1.25 µM ([1]; Well no.=1209) does the source give for `CNCCCC1c2ccccc2C=Cc2ccccc21` [Protriptyline hydrochloride] here?
**A.** 108%

**Q.** And the remaining activity at 3.75 µM ([2]; Well no.=1209)?
**A.** 104%

**Q.** How did the remaining activity at 1.25 µM ([1]; Well no.=6220) turn out when `CC(O)Cn1cnc2c1c(=O)n(C)c(=O)n2C` (stereo not drawn) [Proxyphylline] was run?
**A.** 94.5%

**Q.** And the remaining activity at 1.25 µM ([1]; Well no.=8073)?
**A.** 105%

**Q.** What about the remaining activity at 3.75 µM ([2]; Well no.=6220) of the same compound?
**A.** 94%

**Q.** What about the remaining activity at 3.75 µM ([2]; Well no.=8073) of the same compound?
**A.** 108%

**Q.** `COCCCN1CCC(NC(=O)c2cc(Cl)c(N)c3c2OCC3)CC1` [Prucalopride (succinate)] was tested. Which remaining activity at 1.25 µM ([1]; Well no.=7675) did it give?
**A.** 100%

**Q.** What about the remaining activity at 3.75 µM ([2]; Well no.=7675) of the same compound?
**A.** 103%

**Q.** How did the remaining activity at 1.25 µM ([1]; Well no.=4835) turn out when `COCCCN1CCC(NC(=O)c2cc(Cl)c(N)c3c2OCC3)CC1` [Prucalopride] was run?
**A.** 99.7%

**Q.** And the remaining activity at 1.25 µM ([1]; Well no.=8143)?
**A.** 103%

**Q.** And the remaining activity at 3.75 µM ([2]; Well no.=4835)?
**A.** 98.1%

**Q.** What about the remaining activity at 3.75 µM ([2]; Well no.=8143) of the same compound?
**A.** 101%

**Q.** For `COc1ccc(C[C@H](N)C(=O)N[C@H]2[C@@H](O)[C@H](n3cnc4c(N(C)C)ncnc43)O[C@@H]2CO)cc1` [Puromycin], which remaining activity at 1.25 µM ([1]; Well no.=1674) is on record?
**A.** 98.5%

**Q.** What about the remaining activity at 1.25 µM ([1]; Well no.=3350) of the same compound?
**A.** 93.8%

**Q.** And the remaining activity at 3.75 µM ([2]; Well no.=1674)?
**A.** 97.6%

**Q.** And the remaining activity at 3.75 µM ([2]; Well no.=3350)?
**A.** 90.4%

**Q.** For `CC(C)[C@H](CO)Nc1nc(Nc2cccc(Cl)c2)c2ncn(C(C)C)c2n1` [Purvalanol A - (2R)-2-[[6-[(3-Chlorophenyl)amino]-9-(1-methylethyl)-9H-purin-2-yl]amino]-3-methyl-1-butanol], which remaining activity at 1.25 µM ([1]; Well no.=2434) is on record?
**A.** 105%

**Q.** What about the remaining activity at 3.75 µM ([2]; Well no.=2434) of the same compound?
**A.** 105%

**Q.** `CC(C)[C@H](CO)Nc1nc(Nc2cccc(Cl)c2)c2ncn(C(C)C)c2n1` [Purvalanol A] was tested. Which remaining activity at 1.25 µM ([1]; Well no.=1050) did it give?
**A.** 86.7%

**Q.** What about the remaining activity at 1.25 µM ([1]; Well no.=2606) of the same compound?
**A.** 91.1%

**Q.** And the remaining activity at 3.75 µM ([2]; Well no.=1050)?
**A.** 86.5%

**Q.** What about the remaining activity at 3.75 µM ([2]; Well no.=2606) of the same compound?
**A.** 92%

**Q.** `CC(C)[C@H](CO)Nc1nc(Nc2ccc(C(=O)O)c(Cl)c2)c2ncn(C(C)C)c2n1` [Purvalanol B - (2R)-2-[[6-[(3-Chloro-4-carboxyphenyl)amino]-9-(1-methylethyl)-9H-purin-2-yl]amino]-3-methyl-1-butanol] was tested. Which remaining activity at 1.25 µM ([1]; Well no.=2436) did it give?
**A.** 103%

**Q.** What about the remaining activity at 3.75 µM ([2]; Well no.=2436) of the same compound?
**A.** 105%

**Q.** `CC(C)[C@H](CO)Nc1nc(Nc2ccc(C(=O)O)c(Cl)c2)c2ncn(C(C)C)c2n1` [Purvalanol B] was tested. Which remaining activity at 1.25 µM ([1]; Well no.=2843) did it give?
**A.** 96.5%

**Q.** And the remaining activity at 3.75 µM ([2]; Well no.=2843)?
**A.** 94.9%
